Measurements as given in patent US7138361B2, “Herbicidal heterocycles” (E. I. du Pont de Nemours and Company, priority 2000, dated 2006).

Tests used:
Format in all cases: in vivo
[1] = tested on: barnyardgrass (Echinochloa crus-galli); assay: Test C flooded paddy test; details: for Barnyardgrass plant response rating: Flooded Paddy, scale 0 to 100, 0 no effect, 100 complete control; for Plant response rating, Barnyardgrass: flooded paddy test, scale 0 to 100 (0 no effect, 100 complete control)
Outline: (§1)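 Ratings come from visual comparison with control plants after 12 to 14 days in the greenhouse. Each species was at the 2-leaf stage when the flooded paddy was treated. Scores run from 0, meaning no effect, to 100, meaning complete control.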

[2] = tested on: smallflower flatsedge (Cyperus difformis); assay: Test C flooded paddy test; details: for Flatsedge plant response rating: Flooded Paddy, scale 0 to 100, 0 no effect, 100 complete control; for Plant response rating, Flatsedge: flooded paddy test, scale 0 to 100 (0 no effect, 100 complete control)
Outline: as §1

[3] = tested on: duck salad (Heteranthera limosa); assay: Test C flooded paddy test; details: for Ducksalad plant response rating: Flooded Paddy, scale 0 to 100, 0 no effect, 100 complete control; for Plant response rating, Ducksalad: flooded paddy test, scale 0 to 100 (0 no effect, 100 complete control)
Outline: as §1

rice (Oryza saliva) [4] = assay: Test C flooded paddy test; details: for Rice plant response rating: Flooded Paddy, scale 0 to 100, 0 no effect, 100 complete control; for Plant response rating, Rice: flooded paddy test, scale 0 to 100 (0 no effect, 100 complete control)
Outline: as §1

[5] = tested on: Surinam grass (Brachiaria decumbens); assay: Test B preemergence
Outline: (§2)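 Greenhouse test: chemicals are formulated in a surfactant-containing non-phytotoxic solvent and applied either preemergence to planted seeds or postemergence to plants 2 to 18 cm tall. Response is rated visually versus controls after 13 to 15 days, 0 meaning no effect and 100 complete control.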

[6] = tested on: pigweed (Amaranthus retroflexus); assay: Test B preemergence
Outline: as §2

[7] = tested on: velvetleaf (Abutilon theophrasti); assay: Test B preemergence
Outline: as §2

corn (Zea mays) [8] = assay: Test B preemergence
Outline: as §2

[9] = tested on: barnyardgrass (Echinochloa crus-galli); assay: Test B preemergence
Outline: as §2

[10] = tested on: lambsquarters (Chenopodium album); assay: Test B preemergence
Outline: as §2

[11] = tested on: morning glory (Ipomoea hederacea); assay: Test B preemergence
Outline: as §2

rice (Oryza saliva) [12] = assay: Test B preemergence
Outline: as §2

[13] = tested on: cocklebur (Xanthium strumarium); assay: Test B preemergence
Outline: as §2

[14] = tested on: giant foxtail (Setaria faberii); assay: Test B preemergence
Outline: as §2

[15] = tested on: crabgrass (Digitaria sanguinalis); assay: Test B preemergence
Outline: as §2

[16] = tested on: blackgrass (Alopecurus myosuroides); assay: Test B postemergence
Outline: as §2

[17] = tested on: Surinam grass (Brachiaria decumbens); assay: Test B postemergence
Outline: as §2

[18] = tested on: pigweed (Amaranthus retroflexus); assay: Test B postemergence
Outline: as §2

[19] = tested on: velvetleaf (Abutilon theophrasti); assay: Test B postemergence
Outline: as §2

corn (Zea mays) [20] = assay: Test B postemergence
Outline: as §2

[21] = tested on: barnyardgrass (Echinochloa crus-galli); assay: Test B postemergence
Outline: as §2

[22] = tested on: lambsquarters (Chenopodium album); assay: Test B postemergence
Outline: as §2

[23] = tested on: wheat (Triticum aestivum); assay: Test B postemergence
Outline: as §2

[24] = tested on: morning glory (Ipomoea hederacea); assay: Test B postemergence
Outline: as §2

[25] = tested on: cocklebur (Xanthium strumarium); assay: Test B postemergence
Outline: as §2

wild oat (Avena fatua) = assay: Test B postemergence
Outline: as §2

[26] = tested on: giant foxtail (Setaria faberii); assay: Test B postemergence
Outline: as §2

[27] = tested on: crabgrass (Digitaria sanguinalis); assay: Test B postemergence
Outline: as §2

[28] = Preemergence, Rate 500 g/ha, scale 0 to 100, 0 no effect, 100 complete control
[29] = preemergence, Rate 125 g/ha, scale of 0 to 100 where 0 is no effect and 100 is complete control, 13 to 15 days
[30] = Rate 125 g/ha, scale 0 to 100, 0 no effect, 100 complete control
[31] = Rate 500 g/ha, scale 0 to 100, 0 is no effect, 100 is complete control, 13 to 15 days

## CCCCC(CCCC)c1ccn(C2OCN(c3cccc(OC(F)(F)F)c3)C2=O)n1 (centres unmarked) [Compound 113]
[1]; Rate 250 g/ha
  Barnyardgrass plant response rating: 0
[1]; Rate 500 g/ha
  Barnyardgrass plant response rating: 0
[1]; Rate 62 g/ha
  Plant response rating, Barnyardgrass: 0
[1]; Rate 125 g/ha
  Plant response rating, Barnyardgrass: 0
[2]; Rate 250 g/ha
  Flatsedge plant response rating: 0
[2]; Rate 500 g/ha
  Flatsedge plant response rating: 0
[2]; Rate 62 g/ha
  Plant response rating, Flatsedge: 0
[2]; Rate 125 g/ha
  Plant response rating, Flatsedge: 0
[3]; Rate 250 g/ha
  Ducksalad plant response rating: 0
[3]; Rate 500 g/ha
  Ducksalad plant response rating: 0
[3]; Rate 62 g/ha
  Plant response rating, Ducksalad: 0
[3]; Rate 125 g/ha
  Plant response rating, Ducksalad: 0
Rice (Oryza saliva) [4]; Rate 250 g/ha
  Rice plant response rating: 0
Rice (Oryza saliva) [4]; Rate 500 g/ha
  Rice plant response rating: 0
Rice (Oryza saliva) [4]; Rate 62 g/ha
  Plant response rating, Rice: 0
Rice (Oryza saliva) [4]; Rate 125 g/ha
  Plant response rating, Rice: 0
[5]; [28]
  Plant response rating, Surinam grass: 0
[5]; [29]
  Plant response rating, Surinam grass: 0
[6]; [28]
  Plant response rating, Pigweed: 0
[6]; [29]
  Plant response rating, Pigweed: 0
[7]; [28]
  Plant response rating, Velvetleaf: 0
[7]; [29]
  Plant response rating, Velvetleaf: 0
Corn (Zea mays) [8]; [28]
  Plant response rating, Corn: 0
Corn (Zea mays) [8]; [29]
  Plant response rating, Corn: 0
[9]; [28]
  Plant response rating, Barnyardgrass: 0
[9]; [29]
  Plant response rating, Barnyardgrass: 0
[10]; [28]
  Plant response rating, Lambsquarters: 0
[10]; [29]
  Plant response rating, Lambsquarters: 0
[11]; [28]
  Plant response rating, Morningglory: 0
[11]; [29]
  Plant response rating, Morningglory: 0
Rice (Oryza saliva) [12]; [28]
  Plant response rating, Rice: 0
Rice (Oryza saliva) [12]; [29]
  Plant response rating, Rice: 0
[13]; [28]
  Plant response rating, Cocklebur: 0
[13]; [29]
  Plant response rating, Cocklebur: 0
[14]; [28]
  Plant response rating, Foxtail, Giant: 0
[14]; [29]
  Plant response rating, Foxtail, Giant: 0
[15]; [28]
  Plant response rating, Crabgrass: 0
[15]; [29]
  Plant response rating, Crabgrass: 0
[16]; [30]
  Plant response rating, Blackgrass: 0
[16]; [31]
  Plant response rating, Blackgrass: 0
[17]; [30]
  Plant response rating, Surinam grass: 0
[17]; [31]
  Plant response rating, Surinam grass: 0
[18]; [30]
  Plant response rating, Pigweed: 100
[18]; [31]
  Plant response rating, Pigweed: 100
[19]; [30]
  Plant response rating, Velvetleaf: 0
[19]; [31]
  Plant response rating, Velvetleaf: 0
Corn (Zea mays) [20]; [30]
  Plant response rating, Corn: 0
Corn (Zea mays) [20]; [31]
  Plant response rating, Corn: 0
[21]; [30]
  Plant response rating, Barnyardgrass: 0
[21]; [31]
  Plant response rating, Barnyardgrass: 0
[22]; [30]
  Plant response rating, Lambsquarters: 30
[22]; [31]
  Plant response rating, Lambsquarters: 100
[23]; [30]
  Plant response rating, Wheat: 30
[23]; [31]
  Plant response rating, Wheat: 30
[24]; [30]
  Plant response rating, Morningglory: 0
[24]; [31]
  Plant response rating, Morningglory: 30
[25]; [30]
  Plant response rating, Cocklebur: 0
[25]; [31]
  Plant response rating, Cocklebur: 70
Wild oat (Avena fatua); [30]
  Plant response rating, Wild Oat: 40
Wild oat (Avena fatua); [31]
  Plant response rating, Wild Oat: 40
[26]; [30]
  Plant response rating, Foxtail, Giant: 0
[26]; [31]
  Plant response rating, Foxtail, Giant: 20
[27]; [30]
  Plant response rating, Crabgrass: 40
[27]; [31]
  Plant response rating, Crabgrass: 40

## CCCCC(CCCC)c1ccn(C2OCN(c3cccc(C(F)(F)F)c3)C2=O)n1 (centres unmarked) [Compound 114]
[1]; Rate 250 g/ha
  Barnyardgrass plant response rating: 0
[1]; Rate 500 g/ha
  Barnyardgrass plant response rating: 0
[1]; Rate 62 g/ha
  Plant response rating, Barnyardgrass: 0
[1]; Rate 125 g/ha
  Plant response rating, Barnyardgrass: 0
[2]; Rate 250 g/ha
  Flatsedge plant response rating: 0
[2]; Rate 500 g/ha
  Flatsedge plant response rating: 0
[2]; Rate 62 g/ha
  Plant response rating, Flatsedge: 0
[2]; Rate 125 g/ha
  Plant response rating, Flatsedge: 0
[3]; Rate 250 g/ha
  Ducksalad plant response rating: 0
[3]; Rate 500 g/ha
  Ducksalad plant response rating: 0
[3]; Rate 62 g/ha
  Plant response rating, Ducksalad: 0
[3]; Rate 125 g/ha
  Plant response rating, Ducksalad: 0
Rice (Oryza saliva) [4]; Rate 250 g/ha
  Rice plant response rating: 0
Rice (Oryza saliva) [4]; Rate 500 g/ha
  Rice plant response rating: 0
Rice (Oryza saliva) [4]; Rate 62 g/ha
  Plant response rating, Rice: 0
Rice (Oryza saliva) [4]; Rate 125 g/ha
  Plant response rating, Rice: 0
[5]; [28]
  Plant response rating, Surinam grass: 0
[5]; [29]
  Plant response rating, Surinam grass: 0
[6]; [28]
  Plant response rating, Pigweed: 100
[6]; [29]
  Plant response rating, Pigweed: 30
[7]; [28]
  Plant response rating, Velvetleaf: 0
[7]; [29]
  Plant response rating, Velvetleaf: 0
Corn (Zea mays) [8]; [28]
  Plant response rating, Corn: 30
Corn (Zea mays) [8]; [29]
  Plant response rating, Corn: 20
[9]; [28]
  Plant response rating, Barnyardgrass: 0
[9]; [29]
  Plant response rating, Barnyardgrass: 0
[10]; [28]
  Plant response rating, Lambsquarters: 100
[10]; [29]
  Plant response rating, Lambsquarters: 30
[11]; [28]
  Plant response rating, Morningglory: 30
[11]; [29]
  Plant response rating, Morningglory: 0
Rice (Oryza saliva) [12]; [28]
  Plant response rating, Rice: 0
Rice (Oryza saliva) [12]; [29]
  Plant response rating, Rice: 0
[13]; [28]
  Plant response rating, Cocklebur: 0
[13]; [29]
  Plant response rating, Cocklebur: 0
[14]; [28]
  Plant response rating, Foxtail, Giant: 0
[14]; [29]
  Plant response rating, Foxtail, Giant: 0
[15]; [28]
  Plant response rating, Crabgrass: 0
[15]; [29]
  Plant response rating, Crabgrass: 0
[16]; [30]
  Plant response rating, Blackgrass: 0
[16]; [31]
  Plant response rating, Blackgrass: 0
[17]; [30]
  Plant response rating, Surinam grass: 30
[17]; [31]
  Plant response rating, Surinam grass: 30
[18]; [30]
  Plant response rating, Pigweed: 90
[18]; [31]
  Plant response rating, Pigweed: 100
[19]; [30]
  Plant response rating, Velvetleaf: 0
[19]; [31]
  Plant response rating, Velvetleaf: 0
Corn (Zea mays) [20]; [30]
  Plant response rating, Corn: 0
Corn (Zea mays) [20]; [31]
  Plant response rating, Corn: 0
[21]; [30]
  Plant response rating, Barnyardgrass: 0
[21]; [31]
  Plant response rating, Barnyardgrass: 20
[22]; [30]
  Plant response rating, Lambsquarters: 90
[22]; [31]
  Plant response rating, Lambsquarters: 100
[23]; [30]
  Plant response rating, Wheat: 20
[23]; [31]
  Plant response rating, Wheat: 30
[24]; [30]
  Plant response rating, Morningglory: 30
[24]; [31]
  Plant response rating, Morningglory: 60
[25]; [30]
  Plant response rating, Cocklebur: 50
[25]; [31]
  Plant response rating, Cocklebur: 60
Wild oat (Avena fatua); [30]
  Plant response rating, Wild Oat: 30
Wild oat (Avena fatua); [31]
  Plant response rating, Wild Oat: 50
[26]; [30]
  Plant response rating, Foxtail, Giant: 0
[26]; [31]
  Plant response rating, Foxtail, Giant: 0
[27]; [30]
  Plant response rating, Crabgrass: 20
[27]; [31]
  Plant response rating, Crabgrass: 30
